According to PubChem BioAssay AID2060488 (Molecular Pharmacology Branch, DTP, NCI, 2025):
pIC50: −log10 of the molar value.

Test system: 966289-007-R4-J1-PDC complex spheroid viability
Test: Anticancer human tumor 966289-007-R4-J1-PDC patient-derived pancreatic adenocarcinoma cell line growth inhibition [GQUAD]
Conditions: for pIC50: curve of first compound; for viability, T/C: stronger effect = lower value
In short: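 Tumor cells were grown as complex spheroids with HUVEC endothelial cells and mesenchymal stem cells as stroma. G-quadruplex stabilizers were combined with targeted agents over half-log dilutions from near the clinical Cmax, or from 10 microM.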

[1] = second compound 0.0316 µM, first compound 0.0316 µM
[2] = second compound 0.0316 µM, first compound 0.1 µM
[3] = second compound 0.0316 µM, first compound 0.316 µM
[4] = second compound 0.0316 µM, first compound 1 µM
[5] = second compound 0.0316 µM, first compound 3.16 µM
[6] = second compound 0.0316 µM, first compound 10 µM
[7] = second compound 0.1 µM, first compound 0.0316 µM
[8] = second compound 0.1 µM, first compound 0.1 µM
[9] = second compound 0.1 µM, first compound 0.316 µM
[10] = second compound 0.1 µM, first compound 1 µM
[11] = second compound 0.1 µM, first compound 3.16 µM
[12] = second compound 0.1 µM, first compound 10 µM
[13] = second compound 0.316 µM, first compound 0.0316 µM
[14] = second compound 0.316 µM, first compound 0.1 µM
[15] = second compound 0.316 µM, first compound 0.316 µM
[16] = second compound 0.316 µM, first compound 1 µM
[17] = second compound 0.316 µM, first compound 3.16 µM
[18] = second compound 0.316 µM, first compound 10 µM
[19] = second compound 1 µM, first compound 0.0316 µM
[20] = second compound 1 µM, first compound 0.1 µM
[21] = second compound 1 µM, first compound 0.316 µM
[22] = second compound 1 µM, first compound 1 µM
[23] = second compound 1 µM, first compound 3.16 µM
[24] = second compound 1 µM, first compound 10 µM
[25] = second compound 3.16 µM, first compound 0.0316 µM
[26] = second compound 3.16 µM, first compound 0.1 µM
[27] = second compound 3.16 µM, first compound 0.316 µM
[28] = second compound 3.16 µM, first compound 1 µM
[29] = second compound 3.16 µM, first compound 3.16 µM
[30] = second compound 3.16 µM, first compound 10 µM
[31] = second compound 10 µM, first compound 0.0316 µM
[32] = second compound 10 µM, first compound 0.1 µM
[33] = second compound 10 µM, first compound 0.316 µM
[34] = second compound 10 µM, first compound 1 µM
[35] = second compound 10 µM, first compound 3.16 µM
[36] = second compound 10 µM, first compound 10 µM
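Further: spheroids exposed to the agents for seven days before readout.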
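Wherever viability, T/C is given: percent viability relative to DMSO vehicle control wells taken as 100%.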

## CC(C)(O)C1CCC(Nc2ccc3ncc(-c4cccc(C(F)(F)F)c4)n3n2)CC1 (stereo unspecified) + Cc1cnc(CNC(=O)c2c(=O)c3ccc(N4CCCN(C)CC4)nc3n3c2sc2ccccc23)cn1
Second compound 0.0316 µM
  pIC50: 5.69
Second compound 0.1 µM
  pIC50: > 7.50
Second compound 0.316 µM
  pIC50: > 7.50
Second compound 1 µM
  pIC50: > 7.50
Second compound 3.16 µM
  pIC50: > 7.50
Second compound 10 µM
  pIC50: > 7.50
[1]
  viability, T/C: 103%
[2]
  viability, T/C: 105%
[3]
  viability, T/C: 108%
[4]
  viability, T/C: 97.3%
[5]
  viability, T/C: 22%
[6]
  viability, T/C: 16.9%
[7]
  viability, T/C: 32%
[8]
  viability, T/C: 29.9%
[9]
  viability, T/C: 35.4%
[10]
  viability, T/C: 26%
[11]
  viability, T/C: 5.94%
[12]
  viability, T/C: 7.03%
[13]
  viability, T/C: 8.94%
[14]
  viability, T/C: 10.5%
[15]
  viability, T/C: 9.21%
[16]
  viability, T/C: 9.55%
[17]
  viability, T/C: 3.64%
[18]
  viability, T/C: 2.73%
[19]
  viability, T/C: 6.09%
[20]
  viability, T/C: 5.79%
[21]
  viability, T/C: 5.01%
[22]
  viability, T/C: 4.88%
[23]
  viability, T/C: 0.44%
[24]
  viability, T/C: 0.4%
[25]
  viability, T/C: 3.22%
[26]
  viability, T/C: 4.22%
[27]
  viability, T/C: 3.14%
[28]
  viability, T/C: 0.95%
[29]
  viability, T/C: 0.08%
[30]
  viability, T/C: 0.08%
[31]
  viability, T/C: 0.04%
[32]
  viability, T/C: 0.09%
[33]
  viability, T/C: 0.14%
[34]
  viability, T/C: 0.13%
[35]
  viability, T/C: 0.14%
[36]
  viability, T/C: 0.14%

## COc1ncnc(C2CC2)c1-c1ncc2cnn(Cc3ccc(-c4nc(C(F)(F)F)cn4C(C)C)cc3)c2n1 + Cc1cnc(CNC(=O)c2c(=O)c3ccc(N4CCCN(C)CC4)nc3n3c2sc2ccccc23)cn1
Second compound 0.0316 µM
  pIC50: < 5.00
Second compound 0.1 µM
  pIC50: > 7.50
Second compound 0.316 µM
  pIC50: > 7.50
Second compound 1 µM
  pIC50: > 7.50
Second compound 3.16 µM
  pIC50: > 7.50
Second compound 10 µM
  pIC50: > 7.50
[1]
  viability, T/C: 105%
[2]
  viability, T/C: 94.2%
[3]
  viability, T/C: 103%
[4]
  viability, T/C: 92.9%
[5]
  viability, T/C: 101%
[6]
  viability, T/C: 97.3%
[7]
  viability, T/C: 24.4%
[8]
  viability, T/C: 24.1%
[9]
  viability, T/C: 25.3%
[10]
  viability, T/C: 23.8%
[11]
  viability, T/C: 26.4%
[12]
  viability, T/C: 29.3%
[13]
  viability, T/C: 9.38%
[14]
  viability, T/C: 10.1%
[15]
  viability, T/C: 9.14%
[16]
  viability, T/C: 10.4%
[17]
  viability, T/C: 10.8%
[18]
  viability, T/C: 10.4%
[19]
  viability, T/C: 6.44%
[20]
  viability, T/C: 5.74%
[21]
  viability, T/C: 6.97%
[22]
  viability, T/C: 5.21%
[23]
  viability, T/C: 5.65%
[24]
  viability, T/C: 7.13%
[25]
  viability, T/C: 4.34%
[26]
  viability, T/C: 4.38%
[27]
  viability, T/C: 4.76%
[28]
  viability, T/C: 4.44%
[29]
  viability, T/C: 5.14%
[30]
  viability, T/C: 5.37%
[31]
  viability, T/C: 0.08%
[32]
  viability, T/C: 0.13%
[33]
  viability, T/C: 0.17%
[34]
  viability, T/C: 0.16%
[35]
  viability, T/C: 0.4%
[36]
  viability, T/C: 0.41%

## Cc1[nH]c2ccccc2c1CCNCc1ccc(/C=C/C(=O)NO)cc1 + Cc1cnc(CNC(=O)c2c(=O)c3ccc(N4CCCN(C)CC4)nc3n3c2sc2ccccc23)cn1
Second compound 0.0316 µM
  pIC50: 7.33
Second compound 0.1 µM
  pIC50: > 9.00
Second compound 0.316 µM
  pIC50: > 9.00
Second compound 1 µM
  pIC50: > 9.00
Second compound 3.16 µM
  pIC50: > 9.00
Second compound 10 µM
  pIC50: > 9.00
Second compound 0.0316 µM, first compound 0.000999 µM
  viability, T/C: 120%
Second compound 0.0316 µM, first compound 0.00316 µM
  viability, T/C: 109%
Second compound 0.0316 µM, first compound 0.00999 µM
  viability, T/C: 110%
[1]
  viability, T/C: 72%
Second compound 0.0316 µM, first compound 0.0999 µM
  viability, T/C: 7.63%
[3]
  viability, T/C: 2.65%
Second compound 0.1 µM, first compound 0.000999 µM
  viability, T/C: 36.1%
Second compound 0.1 µM, first compound 0.00316 µM
  viability, T/C: 41.1%
Second compound 0.1 µM, first compound 0.00999 µM
  viability, T/C: 39.4%
[7]
  viability, T/C: 20.3%
Second compound 0.1 µM, first compound 0.0999 µM
  viability, T/C: 5.43%
[9]
  viability, T/C: 2.01%
Second compound 0.316 µM, first compound 0.000999 µM
  viability, T/C: 10.3%
Second compound 0.316 µM, first compound 0.00316 µM
  viability, T/C: 10.7%
Second compound 0.316 µM, first compound 0.00999 µM
  viability, T/C: 9.3%
[13]
  viability, T/C: 5.04%
Second compound 0.316 µM, first compound 0.0999 µM
  viability, T/C: 2.95%
[15]
  viability, T/C: 1.25%
Second compound 1 µM, first compound 0.000999 µM
  viability, T/C: 7.03%
Second compound 1 µM, first compound 0.00316 µM
  viability, T/C: 5.38%
Second compound 1 µM, first compound 0.00999 µM
  viability, T/C: 5.15%
[19]
  viability, T/C: 3.16%
Second compound 1 µM, first compound 0.0999 µM
  viability, T/C: 1.45%
[21]
  viability, T/C: 0.33%
Second compound 3.16 µM, first compound 0.000999 µM
  viability, T/C: 3.98%
Second compound 3.16 µM, first compound 0.00316 µM
  viability, T/C: 4.39%
Second compound 3.16 µM, first compound 0.00999 µM
  viability, T/C: 3.78%
[25]
  viability, T/C: 0.2%
Second compound 3.16 µM, first compound 0.0999 µM
  viability, T/C: 0.08%
[27]
  viability, T/C: 0.8%
Second compound 10 µM, first compound 0.000999 µM
  viability, T/C: 0.11%
Second compound 10 µM, first compound 0.00316 µM
  viability, T/C: 0.57%
Second compound 10 µM, first compound 0.00999 µM
  viability, T/C: 0.17%
[31]
  viability, T/C: 0.39%
Second compound 10 µM, first compound 0.0999 µM
  viability, T/C: 0.16%
[33]
  viability, T/C: 0.17%
